Assay results from patent US20040091477A1, “Immunosuppresive compositions” (priority 2003, published 2004).
Where two headings read alike, the source gives them in different places.

Columns and labels:
[1] = molecular target: platelet activating factor receptor (PAFR) (Homo sapiens, UniProt P25105); conditions: cited from earlier work
[2] = system: lymphocyte activation markers; test: Dose range of BN52021 on lymphocyte activation markers in PBMC from asthma patients; type: cell-based, human; conditions: 1×10^−5 and 1×10^−7 M, 3 of the patients tested
Experimental: (§1) Venous blood was collected in polyethylene tubes containing EDTA between 9 and 10 a.m. PBMC were separated by Ficoll-paque (Pharmacia, Uppsala, Sweden) density gradient centrifugation. Cells were washed and suspended in AIM-V medium (Gibco BRL, Gaithersburg, Md.) at density of 2×10^6 cells/ml. PBMC were stimulated with 20 nM phorbol 12-myristate 13-acetate (PMA) and 1 μM ionomycin (IOM) (ICN Pharmaceuticals, Inc. CA, USA). The cells were harvested 24 hours later and supernatants were frozen at −70° C. until use. […] For BN52021, a range between 1×10^−9 and 1×10^−4 M was used.
(§2) Two-color flow cytometry was conducted using a Coulter Epics Profile II flow cytometer (Coulter Scientific, Hialeah, Fla., USA). Isotypic controls for the monoclonal antibodies (mAb) used to detect antigens of interest were established for each cell preparation. Positive analysis regions for cells expressing specific surface antigens were set against isotypic controls and specific binding of fluorophore-conjugated mAb was analyzed by cytofluorography according to standard methods. Lymphocyte subpopulations were identified by position on forward and side scatter plots and live-gated. Isotype matched antibodies were utilized to control for nonspecific fluorescence. […] Background values for antibodies used in assays were based on fluorescence of non-specific antibodies. […]

CD45RA = CD45RA expression by PMA/IOM-stimulated PBMC from asthma patients, flow cytometry; type: cell-based, human
Experimental: as §1, §2

IL-5 = IL-5 expression by PMA/IOM-stimulated PBMC from asthma patients, ELISA; type: cell-based, human
Experimental: as §1
(§3) Cytokine expression (IL-4 and IL5) was evaluated in culture supernatants by enzyme-linked immunoabsorption assay (Amersham North America, Illinois, USA). The detection range was 10-400 pg/ml and 7.8-500 pg/ml respectively. Colorimetric changes proportional to supernatant cytokine concentration were measured using a model 2550 EIA reader (Bio-Rad Laboratories, Hercules Calif. USA). All assays were performed in duplicate.
(§4) The data shown Table 2 was obtained using cultures of 2×10^6 human PBMC, which were isolated from venous blood and stimulated 24 hours with media, 20 nM PMA+1.0 μM ionomycin (PMA/I), 1.0 μM cyclosporine A+PMA/IOM, or 1 μM ginkgolide BN52021+PMA. Expression of interleukins 4 and 5 were measured in PBMC culture supernatents by antibody capture ELISA. […]

CD54 = CD54 expression by PMA/IOM-stimulated PBMC from asthma patients, flow cytometry; type: cell-based, human
Experimental: as §1, §2

HLA-DR = HLA-DR expression by PMA/IOM-stimulated PBMC from asthma patients, flow cytometry; type: cell-based, human
Experimental: as §1, §2

[3] = system: cAMP-specific phosphodiesterase; conditions: cited from earlier work
CD25 = CD25 expression by PMA/IOM-stimulated PBMC from asthma patients, flow cytometry; type: cell-based, human
Experimental: as §1, §2

IL-4 = IL-4 expression by PMA/IOM-stimulated PBMC from asthma patients, ELISA; type: cell-based, human
Experimental: as §1, §3, §4

[4] = 1 μM, PMA/IOM-stimulated cultures
[5] = PMA + IOM + 1 μM compound, 24 hours, ±SE

platelet activating factor receptor (PAFR), sequence (P25105 whole entry, species assumed): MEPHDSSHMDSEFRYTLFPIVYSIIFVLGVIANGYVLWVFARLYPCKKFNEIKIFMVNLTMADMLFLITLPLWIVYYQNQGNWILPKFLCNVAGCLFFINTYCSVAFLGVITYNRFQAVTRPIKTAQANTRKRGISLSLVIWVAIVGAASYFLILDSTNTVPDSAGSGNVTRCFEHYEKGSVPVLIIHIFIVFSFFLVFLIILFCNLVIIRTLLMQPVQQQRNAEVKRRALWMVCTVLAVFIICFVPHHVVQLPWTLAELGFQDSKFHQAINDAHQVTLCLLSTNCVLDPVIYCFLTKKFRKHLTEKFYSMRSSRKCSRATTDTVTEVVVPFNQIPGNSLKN

Structure (SMILES): C[C@@H]1C(=O)O[C@H]2[C@@H](O)[C@@]34[C@H]5C[C@@H](C(C)(C)C)[C@]36[C@@H](OC(=O)[C@@H]6O)O[C@@]4(C(=O)O5)[C@@]12O [BN52021, Ginkgolide B]
- PAFR antagonist activity (in words) [1]: PAFR antagonist activity
- PAFR antagonist activity (in words) ([1]; listed as Ginkgolide B): PAFR antagonist
- change in lymphocyte activation markers (in words) [2]: No change occurred in lymphocyte activation markers
- effect on CD45RA expression (in words) (CD45RA; [4]): decreased significantly
- % CD45RA (CD45RA; [5]): 48.8 ± 9.5 %
- effect on IL-5 expression (in words) (IL-5; [4]): no statistically significant effect
- IL-5 in culture supernatant (IL-5; [5]): 374 ± 105 pg/mL
- effect on CD54 expression (in words) (CD54; [4]): unaffected
- % CD54 (CD54; [5]): 27.4 ± 6.9%
- effect on HLA-DR expression (in words) (HLA-DR; [4]): a trend towards the reduction
- % HLA-DR (HLA-DR; [5]): 21.2 ± 5.3¶ %
- cAMP phosphodiesterase inhibitory activity (in words) [3]: does not possess cAMP phophodiesterase activity
- effect on CD25 expression (in words) (CD25; [4]): unaffected
- % CD25 (CD25; [5]): 7.1 ± 2.0%
- effect on IL-4 expression (in words) (IL-4; [4]): no statistically significant effect
- IL-4 in culture supernatant (IL-4; [5]): 81.7 ± 28.1 pg/mL
